# US8066980B2, “Osteogenic synthetic peptides, pharmaceutical compositions comprising the same, and medium containing the same” (Industry Foundation of Chonnam National University, priority 2008, dated 2011)
# Where a SMILES comes first, the peptide text is derived from it.
# B1: BMP-7: bone morphogenetic protein-7, known as an osteogenesis promoter; comparator (protein, UniProt P18075 293-431, looked up)
# Bone morphogenetic protein 7: STGSKQRSQNRSKTPKNQEALRMANVAENSSSDQRQACKKHELYVSFRDLGWQDWIIAPEGYAAYYCEGECAFPLNSYMNATNHAIVQTLVHFINPETVPKPCCAPTQLNAISVLYFDDSSNVILKKYRNMVVRACGCH
# Legend:
# cells = experiment: MTT assay for cytotoxicity; assay type: cell-based; conditions: within a range of used concentrations
# surface marker CD44 = experiment: Fluorescence microscopy of surface marker CD44; assay type: cell-based, mouse; conditions: at the same concentrations
# Description: The effects of BFP 1 and BFP 2 on the expression of the surface marker CD44 were observed under a fluorescence microscope and the results are given in FIGS. 10a and 10b.
# During differentiation, the cells were stained with DAPI, a fluorescent stain that easily binds to the DNA of living cells, and with a PE(phycoerythrin)-conjugated-CD44 antibody.
molecule,measurement,setting,value
"CC(C)[C@H](NC(=O)[C@H](C)NC(=O)[C@H](CCCCN)NC(=O)[C@H](Cc1ccc(O)cc1)NC(=O)[C@@H]1CCCN1C(=O)[C@H](Cc1ccc(O)cc1)NC(=O)[C@H](CO)NC(=O)[C@H](Cc1ccccc1)NC(=O)CNC(=O)[C@H](CCC(N)=O)NC(=O)CN)C(=O)N[C@@H](Cc1ccccc1)C(=O)N[C@@H](CO)C(=O)N[C@H](C(=O)N[C@@H](CCC(N)=O)C(=O)O)[C@@H](C)O [BFP 1, Gly-Gln-Gly-Phe-Ser-Tyr-Pro-Tyr-Lys-Ala-Val-Phe-Ser-Thr-Gln] (H-GQGFSYPYKAVFSTQ-OH)",cytotoxicity (MTT assay),cells,neither BFP 1 nor BFP 2 are toxic to cells
"CC(C)[C@H](N)C(=O)N[C@@H](CCC(=O)O)C(=O)N[C@@H](Cc1c[nH]cn1)C(=O)N[C@@H](CC(=O)O)C(=O)N[C@@H](CCCCN)C(=O)N[C@@H](CCC(=O)O)C(=O)N[C@@H](Cc1ccccc1)C(=O)N[C@@H](Cc1ccccc1)C(=O)N[C@@H](Cc1c[nH]cn1)C(=O)N1CCC[C@H]1C(=O)N[C@@H](CCCNC(=N)N)C(=O)N[C@@H](Cc1ccc(O)cc1)C(=O)N[C@@H](Cc1c[nH]cn1)C(=O)N[C@@H](Cc1c[nH]cn1)C(=O)N[C@@H](CCCNC(=N)N)C(=O)O [BFP 2, Val-Glu-His-Asp-Lys-Glu-Phe-Phe-His-Pro-Arg-Tyr-His-His-Arg] (H-VEHDKEFFHPRYHHR-OH)",cytotoxicity (MTT assay),cells,neither BFP 1 nor BFP 2 are toxic to cells
B1,CD44 staining intensity compared with BFP 1 or BFP 2,surface marker CD44,less intense staining
